The experiment concerns the target T1, NSD2 (Homo sapiens, UniProt O96028).
T1 construct: endogenous in cells; host or cells: U2OS (ATCC)
T1 sequence (O96028 1-1365): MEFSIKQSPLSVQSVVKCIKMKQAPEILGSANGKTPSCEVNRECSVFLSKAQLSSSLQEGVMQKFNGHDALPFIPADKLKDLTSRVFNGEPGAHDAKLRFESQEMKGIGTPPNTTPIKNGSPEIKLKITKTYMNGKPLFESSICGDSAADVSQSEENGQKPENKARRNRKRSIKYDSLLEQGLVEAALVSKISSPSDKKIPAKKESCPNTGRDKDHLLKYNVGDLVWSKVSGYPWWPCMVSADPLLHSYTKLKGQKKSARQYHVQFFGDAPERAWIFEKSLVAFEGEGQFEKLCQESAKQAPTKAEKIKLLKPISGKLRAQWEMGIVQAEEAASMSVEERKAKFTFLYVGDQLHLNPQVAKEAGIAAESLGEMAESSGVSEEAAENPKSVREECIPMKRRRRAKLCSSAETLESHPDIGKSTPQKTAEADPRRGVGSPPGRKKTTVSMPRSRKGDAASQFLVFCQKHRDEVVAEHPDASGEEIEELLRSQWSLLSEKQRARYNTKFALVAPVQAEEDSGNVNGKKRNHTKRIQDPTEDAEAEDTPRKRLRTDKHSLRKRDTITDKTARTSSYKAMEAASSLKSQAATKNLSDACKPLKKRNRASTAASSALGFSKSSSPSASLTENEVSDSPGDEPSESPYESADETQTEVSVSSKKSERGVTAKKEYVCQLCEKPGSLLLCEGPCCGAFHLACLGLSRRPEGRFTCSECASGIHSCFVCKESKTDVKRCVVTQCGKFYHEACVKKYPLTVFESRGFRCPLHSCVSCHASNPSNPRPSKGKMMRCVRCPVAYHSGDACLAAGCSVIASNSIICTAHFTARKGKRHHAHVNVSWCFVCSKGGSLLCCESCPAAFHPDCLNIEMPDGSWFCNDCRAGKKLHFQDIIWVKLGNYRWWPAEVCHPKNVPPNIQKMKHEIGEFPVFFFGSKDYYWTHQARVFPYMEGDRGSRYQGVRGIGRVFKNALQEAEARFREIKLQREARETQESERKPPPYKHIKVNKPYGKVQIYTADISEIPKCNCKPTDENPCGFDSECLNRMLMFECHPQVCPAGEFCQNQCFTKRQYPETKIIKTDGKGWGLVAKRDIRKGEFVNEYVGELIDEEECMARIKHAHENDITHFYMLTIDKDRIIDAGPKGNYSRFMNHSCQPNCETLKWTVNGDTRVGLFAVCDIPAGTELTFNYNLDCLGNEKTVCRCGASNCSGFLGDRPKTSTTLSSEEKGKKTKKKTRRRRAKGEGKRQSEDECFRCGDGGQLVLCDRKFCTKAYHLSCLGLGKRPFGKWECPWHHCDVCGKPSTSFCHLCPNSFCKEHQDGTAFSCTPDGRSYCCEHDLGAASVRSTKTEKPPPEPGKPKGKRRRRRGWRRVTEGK
The experiment in a line: Western blot of NSD2 in U2OS cells. The experiment is classed as cell-based. As to conditions: 300 nM, 6 h. As to the method:
HEK293T and U2OS were obtained from ATCC and cultured in high-glucose-containing Dulbecco’s Modified Eagle’s Medium (DMEM; Gibco; cat. #11995) supplemented with 10% fetal bovine serum (VWR) and 1% penicillin/streptomycin (Gibco). Cells were treated with either UNC10415667, UNC12149, UNC12567, hemin (Sigma; cat. #H9039), or DMSO control for the indicated times and analyzed by western blot using standard procedures. Briefly, cells were lysed on ice for 15 min in NETN lysis buffer (20 mM Tris pH 8.0, 100 mM NaCl, 0.5 mM EDTA, 0.5% NP40) supplemented with 10 µg/mL aprotinin, 10 µg/mL leupeptin, 10 µg/mL pepstatin A, 1 mM sodium orthovanadate, 1 mM sodium fluoride, and 1 mM AEBSF (4-[two aminoethyl] benzenesulfonyl fluoride). Cell lysates were centrifuged at 20,000×g in a benchtop microcentrifuge at 4 °C for 10 min. Protein concentration was determined by Bradford assay (Bio-Rad; cat. #5000006). Protein concentration was normalized using Laemmli buffer. Samples were heated for 5 min at 95°C in a dry water-bath. Samples were separated on TGX stain free gels (Bio-Rad) transferred to nitrocellulose membrane and blocked in 5% non-fat dry milk (Biorad; cat. #1706404) diluted in 1x TBS-T (137 mM NaCl, 2.7 mM KCl, 25 mM Tris pH 7.6, 1% Tween-20). […]
For orientation: In western blotting, separated proteins are transferred to a membrane and probed.

As to `Cc1cc(C=O)ccc1C(=O)N1CCc2cc(NC(=O)c3ccc(CN(C(=O)c4ccc5c(c4)OCC(=O)N5)C4CC4)cc3)ccc2C1` [UNC12149], the “NSD2 level by western blot” value is given as “undetectable”.

The record behind these values is publication PMC13316043, “Structural basis of NSD2 degradation via targeted recruitment of SCF-FBXO22” (Nature Communications, 2026).
